Read-outs that look alike come from different tables or passages of the source. Each block holds one compound with its values, some of them ahead of it.
What was measured:
Test in all cases: biochemical
Parameters in all cases: DiscoveRx KINOMEscan active site-directed competition binding; percent of control kinase bound to immobilised ligand
DRAK2 = target: T1, DRAK2 (Homo sapiens, UniProt O94768)
T1 construct: gene STK17B
T1 sequence (O94768 1-372): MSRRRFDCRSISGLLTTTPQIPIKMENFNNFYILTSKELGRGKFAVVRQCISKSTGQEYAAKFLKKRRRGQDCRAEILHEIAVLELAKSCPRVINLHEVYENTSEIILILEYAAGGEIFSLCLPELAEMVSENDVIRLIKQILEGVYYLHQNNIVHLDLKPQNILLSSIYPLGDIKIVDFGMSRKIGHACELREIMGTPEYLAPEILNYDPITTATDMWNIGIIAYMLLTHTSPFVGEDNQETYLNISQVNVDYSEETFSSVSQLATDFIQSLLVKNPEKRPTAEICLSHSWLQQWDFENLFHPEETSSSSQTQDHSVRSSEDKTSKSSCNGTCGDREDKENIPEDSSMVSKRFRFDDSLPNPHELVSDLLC

EGFR(L747-T751del,Sins) = EGFR(L747-T751del,Sins) (Homo sapiens, UniProt P00533, DEL747-750/T751S)
TNIK = TNIK (Homo sapiens, UniProt Q9UKE5)
SRPK3 = SRPK3 (Homo sapiens, UniProt Q9UPE1)
RET = RET (Homo sapiens, UniProt P07949)
YSK4 = target: T2, YSK4 (Homo sapiens, UniProt Q56UN5)
T2 construct: gene MAP3K19
T2 sequence (Q56UN5 1-1328): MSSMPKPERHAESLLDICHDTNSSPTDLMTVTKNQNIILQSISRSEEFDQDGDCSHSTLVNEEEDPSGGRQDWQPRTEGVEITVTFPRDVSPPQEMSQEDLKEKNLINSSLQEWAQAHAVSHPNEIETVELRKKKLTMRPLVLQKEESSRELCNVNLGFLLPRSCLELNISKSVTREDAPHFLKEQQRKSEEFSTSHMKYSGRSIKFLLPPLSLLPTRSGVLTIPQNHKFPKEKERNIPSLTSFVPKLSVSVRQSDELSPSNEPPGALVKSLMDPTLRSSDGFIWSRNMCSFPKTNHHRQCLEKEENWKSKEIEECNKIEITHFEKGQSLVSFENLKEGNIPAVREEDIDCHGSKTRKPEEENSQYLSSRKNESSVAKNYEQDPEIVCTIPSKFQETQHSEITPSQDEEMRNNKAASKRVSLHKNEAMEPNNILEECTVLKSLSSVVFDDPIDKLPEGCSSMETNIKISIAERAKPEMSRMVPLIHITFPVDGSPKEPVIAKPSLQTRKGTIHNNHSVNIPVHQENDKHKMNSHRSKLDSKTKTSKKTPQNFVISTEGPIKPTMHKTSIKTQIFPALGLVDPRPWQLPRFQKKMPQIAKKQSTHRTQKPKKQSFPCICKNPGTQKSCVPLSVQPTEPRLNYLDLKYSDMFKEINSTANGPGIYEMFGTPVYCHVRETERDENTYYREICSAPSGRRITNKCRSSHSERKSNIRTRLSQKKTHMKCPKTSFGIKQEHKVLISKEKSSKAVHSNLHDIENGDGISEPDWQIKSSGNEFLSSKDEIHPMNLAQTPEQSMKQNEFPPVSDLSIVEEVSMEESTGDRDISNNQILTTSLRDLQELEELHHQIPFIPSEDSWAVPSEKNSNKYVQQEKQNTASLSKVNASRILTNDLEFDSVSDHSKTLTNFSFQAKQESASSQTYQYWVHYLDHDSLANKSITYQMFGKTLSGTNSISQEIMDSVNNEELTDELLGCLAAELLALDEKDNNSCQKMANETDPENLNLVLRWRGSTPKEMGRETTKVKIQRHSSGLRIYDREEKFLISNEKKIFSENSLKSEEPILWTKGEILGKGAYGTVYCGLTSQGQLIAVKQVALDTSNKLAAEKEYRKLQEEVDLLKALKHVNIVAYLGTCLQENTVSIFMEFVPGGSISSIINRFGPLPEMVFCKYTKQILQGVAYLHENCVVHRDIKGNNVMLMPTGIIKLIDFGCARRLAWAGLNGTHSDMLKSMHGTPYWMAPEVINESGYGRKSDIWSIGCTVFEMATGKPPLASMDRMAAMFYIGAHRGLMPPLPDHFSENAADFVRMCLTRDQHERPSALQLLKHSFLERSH

SRPK1 = SRPK1 (Homo sapiens, UniProt Q96SB4)
EGFR(E746-A750del) = EGFR(E746-A750del) (Homo sapiens, UniProt P00533, DEL746-750)
PIK3CG = PIK3CG (Homo sapiens, UniProt P48736)
SRC = SRC (Homo sapiens, UniProt P12931)
MKNK2 = MKNK2 (Homo sapiens, UniProt Q9HBH9)
KIT(A829P) = KIT(A829P) (Homo sapiens, UniProt P10721, A829P)
[1] = read-out: Niraparib (MK-4827) / %Ctrl @ 10000nM
[2] = read-out: Olaparib / %Ctrl @ 10000nM
[3] = read-out: Rucaparib / %Ctrl @ 10000nM, binding competition, % of control
[4] = read-out: Talazoparib (BMN 673) / %Ctrl @ 10000nM

KIT(A829P), sequence (P10721 whole entry A829P): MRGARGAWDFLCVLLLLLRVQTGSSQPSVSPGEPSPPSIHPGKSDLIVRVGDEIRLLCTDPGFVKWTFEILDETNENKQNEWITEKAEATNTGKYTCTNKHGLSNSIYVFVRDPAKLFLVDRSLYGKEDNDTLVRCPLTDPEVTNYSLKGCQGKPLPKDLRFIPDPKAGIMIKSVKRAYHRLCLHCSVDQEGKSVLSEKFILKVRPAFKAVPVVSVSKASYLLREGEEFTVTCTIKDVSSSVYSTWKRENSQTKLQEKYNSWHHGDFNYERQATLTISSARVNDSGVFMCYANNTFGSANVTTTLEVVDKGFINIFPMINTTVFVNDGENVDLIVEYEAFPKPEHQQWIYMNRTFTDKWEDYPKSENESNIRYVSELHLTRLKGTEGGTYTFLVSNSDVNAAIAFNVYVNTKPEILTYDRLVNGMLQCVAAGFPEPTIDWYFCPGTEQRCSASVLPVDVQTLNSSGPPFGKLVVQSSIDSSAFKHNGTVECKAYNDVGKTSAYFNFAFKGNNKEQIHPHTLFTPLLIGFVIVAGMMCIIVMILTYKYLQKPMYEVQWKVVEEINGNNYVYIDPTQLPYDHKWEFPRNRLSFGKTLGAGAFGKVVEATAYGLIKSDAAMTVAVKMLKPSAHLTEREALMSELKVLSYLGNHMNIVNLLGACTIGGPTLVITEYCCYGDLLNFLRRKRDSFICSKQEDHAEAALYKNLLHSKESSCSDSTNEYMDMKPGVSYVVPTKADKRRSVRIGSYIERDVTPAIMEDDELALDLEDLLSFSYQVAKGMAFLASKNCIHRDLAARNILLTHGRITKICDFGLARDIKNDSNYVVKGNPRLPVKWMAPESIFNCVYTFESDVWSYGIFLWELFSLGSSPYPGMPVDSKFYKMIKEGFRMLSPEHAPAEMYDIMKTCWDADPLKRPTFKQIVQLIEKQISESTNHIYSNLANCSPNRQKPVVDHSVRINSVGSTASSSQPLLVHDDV
MKNK2, sequence (Q9HBH9 whole entry): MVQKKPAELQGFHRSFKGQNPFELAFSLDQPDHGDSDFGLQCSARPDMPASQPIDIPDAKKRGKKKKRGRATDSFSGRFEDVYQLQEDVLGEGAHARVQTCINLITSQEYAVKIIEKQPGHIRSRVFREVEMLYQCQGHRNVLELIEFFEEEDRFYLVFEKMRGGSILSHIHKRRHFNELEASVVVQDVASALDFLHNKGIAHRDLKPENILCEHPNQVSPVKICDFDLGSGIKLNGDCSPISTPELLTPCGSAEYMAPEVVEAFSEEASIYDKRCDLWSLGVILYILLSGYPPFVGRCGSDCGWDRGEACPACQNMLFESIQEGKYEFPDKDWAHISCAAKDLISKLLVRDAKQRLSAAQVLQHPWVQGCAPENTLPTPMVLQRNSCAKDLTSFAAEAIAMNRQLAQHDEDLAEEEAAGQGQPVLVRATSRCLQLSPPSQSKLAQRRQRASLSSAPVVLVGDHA
SRC, sequence (P12931 whole entry): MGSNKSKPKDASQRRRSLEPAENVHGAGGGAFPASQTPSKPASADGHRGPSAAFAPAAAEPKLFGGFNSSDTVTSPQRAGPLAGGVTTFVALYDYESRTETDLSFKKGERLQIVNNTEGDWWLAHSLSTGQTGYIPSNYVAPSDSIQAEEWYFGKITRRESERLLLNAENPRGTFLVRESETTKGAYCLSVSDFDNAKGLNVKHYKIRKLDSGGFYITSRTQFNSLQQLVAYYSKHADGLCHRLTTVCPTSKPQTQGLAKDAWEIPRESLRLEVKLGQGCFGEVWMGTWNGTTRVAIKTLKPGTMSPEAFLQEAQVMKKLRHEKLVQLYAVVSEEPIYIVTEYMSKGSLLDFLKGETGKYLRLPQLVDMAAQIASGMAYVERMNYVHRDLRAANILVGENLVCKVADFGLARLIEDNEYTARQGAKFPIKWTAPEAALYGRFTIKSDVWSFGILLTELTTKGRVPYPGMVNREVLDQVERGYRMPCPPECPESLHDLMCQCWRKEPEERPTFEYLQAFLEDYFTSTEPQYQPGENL
PIK3CG, sequence (P48736 whole entry): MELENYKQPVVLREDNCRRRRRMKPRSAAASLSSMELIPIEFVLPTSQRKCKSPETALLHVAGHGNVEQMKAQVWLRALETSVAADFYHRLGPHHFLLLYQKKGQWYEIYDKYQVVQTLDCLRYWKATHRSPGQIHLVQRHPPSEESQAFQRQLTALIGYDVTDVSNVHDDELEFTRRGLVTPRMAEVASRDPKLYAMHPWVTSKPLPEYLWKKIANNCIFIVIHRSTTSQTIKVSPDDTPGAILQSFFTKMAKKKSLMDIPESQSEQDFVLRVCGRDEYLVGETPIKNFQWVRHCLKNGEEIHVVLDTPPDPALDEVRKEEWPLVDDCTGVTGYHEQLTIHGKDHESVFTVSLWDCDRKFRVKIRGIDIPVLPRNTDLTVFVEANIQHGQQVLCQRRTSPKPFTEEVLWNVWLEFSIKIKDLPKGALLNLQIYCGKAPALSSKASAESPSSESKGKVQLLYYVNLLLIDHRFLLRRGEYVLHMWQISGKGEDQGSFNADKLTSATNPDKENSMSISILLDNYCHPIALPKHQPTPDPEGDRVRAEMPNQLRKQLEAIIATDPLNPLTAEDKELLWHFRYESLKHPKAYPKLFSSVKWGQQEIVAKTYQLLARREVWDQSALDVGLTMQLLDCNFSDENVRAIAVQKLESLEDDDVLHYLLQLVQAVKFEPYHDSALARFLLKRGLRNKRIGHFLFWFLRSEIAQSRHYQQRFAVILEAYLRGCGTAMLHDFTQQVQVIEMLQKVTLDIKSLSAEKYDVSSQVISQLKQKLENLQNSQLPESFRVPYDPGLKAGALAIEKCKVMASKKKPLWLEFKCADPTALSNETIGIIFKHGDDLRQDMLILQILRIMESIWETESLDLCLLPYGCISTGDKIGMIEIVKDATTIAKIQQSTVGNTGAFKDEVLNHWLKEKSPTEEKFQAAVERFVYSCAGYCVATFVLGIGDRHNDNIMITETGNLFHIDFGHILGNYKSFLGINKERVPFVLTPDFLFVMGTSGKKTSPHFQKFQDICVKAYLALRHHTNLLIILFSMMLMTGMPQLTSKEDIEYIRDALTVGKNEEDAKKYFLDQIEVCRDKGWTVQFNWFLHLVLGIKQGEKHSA
RET, sequence (P07949 whole entry): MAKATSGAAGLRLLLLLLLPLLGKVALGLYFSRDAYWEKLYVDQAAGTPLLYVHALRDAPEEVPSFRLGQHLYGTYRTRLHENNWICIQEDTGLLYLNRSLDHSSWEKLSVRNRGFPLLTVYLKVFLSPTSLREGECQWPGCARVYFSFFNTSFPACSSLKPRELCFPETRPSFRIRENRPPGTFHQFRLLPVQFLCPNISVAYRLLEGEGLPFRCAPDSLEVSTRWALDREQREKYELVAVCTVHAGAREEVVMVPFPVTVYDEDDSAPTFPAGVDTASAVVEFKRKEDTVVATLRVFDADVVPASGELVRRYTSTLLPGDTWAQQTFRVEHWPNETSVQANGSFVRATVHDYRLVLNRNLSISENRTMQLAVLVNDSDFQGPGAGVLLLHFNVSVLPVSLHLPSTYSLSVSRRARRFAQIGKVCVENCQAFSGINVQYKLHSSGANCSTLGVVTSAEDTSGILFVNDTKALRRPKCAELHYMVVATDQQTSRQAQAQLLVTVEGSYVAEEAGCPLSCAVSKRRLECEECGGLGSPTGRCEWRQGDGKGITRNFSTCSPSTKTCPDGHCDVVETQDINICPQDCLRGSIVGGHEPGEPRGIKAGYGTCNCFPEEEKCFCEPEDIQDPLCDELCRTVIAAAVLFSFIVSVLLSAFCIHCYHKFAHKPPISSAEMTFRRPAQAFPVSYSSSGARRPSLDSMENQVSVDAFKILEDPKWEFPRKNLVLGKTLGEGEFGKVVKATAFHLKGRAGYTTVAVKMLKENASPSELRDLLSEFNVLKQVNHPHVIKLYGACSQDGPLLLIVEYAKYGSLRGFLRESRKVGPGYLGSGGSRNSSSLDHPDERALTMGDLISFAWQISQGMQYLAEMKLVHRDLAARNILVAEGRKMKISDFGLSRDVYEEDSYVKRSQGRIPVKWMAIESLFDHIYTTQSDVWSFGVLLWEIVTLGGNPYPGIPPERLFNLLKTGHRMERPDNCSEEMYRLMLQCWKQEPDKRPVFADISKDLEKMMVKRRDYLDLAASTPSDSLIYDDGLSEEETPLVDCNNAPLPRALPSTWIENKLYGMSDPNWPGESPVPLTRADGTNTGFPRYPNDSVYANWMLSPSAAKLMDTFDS
SRPK3, sequence (Q9UPE1 whole entry): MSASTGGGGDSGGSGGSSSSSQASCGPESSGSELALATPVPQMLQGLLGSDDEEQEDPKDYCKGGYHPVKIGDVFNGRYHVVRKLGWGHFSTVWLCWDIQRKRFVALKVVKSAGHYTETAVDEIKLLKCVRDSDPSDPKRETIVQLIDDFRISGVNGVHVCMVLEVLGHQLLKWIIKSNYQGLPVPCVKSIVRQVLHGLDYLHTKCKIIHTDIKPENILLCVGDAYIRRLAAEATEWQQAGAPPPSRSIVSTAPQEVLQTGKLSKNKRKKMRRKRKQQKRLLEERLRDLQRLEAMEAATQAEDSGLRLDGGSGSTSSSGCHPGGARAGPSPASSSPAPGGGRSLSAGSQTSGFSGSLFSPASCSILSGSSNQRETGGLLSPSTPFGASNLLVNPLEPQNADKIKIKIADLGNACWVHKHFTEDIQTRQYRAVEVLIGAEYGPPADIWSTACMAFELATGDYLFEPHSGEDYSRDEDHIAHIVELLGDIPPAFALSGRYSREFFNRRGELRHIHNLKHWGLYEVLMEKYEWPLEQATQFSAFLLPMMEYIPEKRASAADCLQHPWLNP

Compound: NC(=O)c1cccc2cn(-c3ccc([C@@H]4CCCNC4)cc3)nc12 [Niraparib]
percent of control binding at 10 µM (DRAK2; [1]): 82%
percent of control binding at 10 µM (EGFR(L747-T751del,Sins); [1]): 90%
percent of control binding at 10 µM (TNIK; [1]): 86%
percent of control binding at 10 µM (SRPK3; [1]): 71%
percent of control binding at 10 µM (RET; [1]): 83%
percent of control binding at 10 µM (YSK4; [1]): 63%
percent of control binding at 10 µM (SRPK1; [1]): 77%
percent of control binding at 10 µM (EGFR(E746-A750del); [1]): 96%
percent of control binding at 10 µM (PIK3CG; [1]): 100%
percent of control binding at 10 µM (SRC; [1]): 94%
percent of control binding at 10 µM (MKNK2; [1]): 71%
percent of control binding at 10 µM (KIT(A829P); [1]): 98%

percent of control binding at 10 µM (DRAK2; [2]): 69%
percent of control binding at 10 µM (EGFR(L747-T751del,Sins); [2]): 81%
percent of control binding at 10 µM (TNIK; [2]): 100%
percent of control binding at 10 µM (SRPK3; [2]): 84%
percent of control binding at 10 µM (RET; [2]): 100%
percent of control binding at 10 µM (YSK4; [2]): 65%
percent of control binding at 10 µM (SRPK1; [2]): 98%
percent of control binding at 10 µM (EGFR(E746-A750del); [2]): 97%
percent of control binding at 10 µM (PIK3CG; [2]): 89%
percent of control binding at 10 µM (SRC; [2]): 100%
percent of control binding at 10 µM (MKNK2; [2]): 87%
Compound: O=C(c1cc(Cc2n[nH]c(=O)c3ccccc23)ccc1F)N1CCN(C(=O)C2CC2)CC1 [Olaparib]

percent of control binding at 10 µM (DRAK2; [3]): 98%
percent of control binding at 10 µM (EGFR(L747-T751del,Sins); [3]): 86%
percent of control binding at 10 µM (TNIK; [3]): 22%
percent of control binding at 10 µM (SRPK3; [3]): 85%
percent of control binding at 10 µM (RET; [3]): 98%
percent of control binding at 10 µM (YSK4; [3]): 58%
percent of control binding at 10 µM (SRPK1; [3]): 97%
percent of control binding at 10 µM (EGFR(E746-A750del); [3]): 81%
percent of control binding at 10 µM (PIK3CG; [3]): 88%
percent of control binding at 10 µM (SRC; [3]): 99%
percent of control binding at 10 µM (MKNK2; [3]): 38%
percent of control binding at 10 µM (KIT(A829P); [3]): 88%
Compound: CNCc1ccc(-c2[nH]c3cc(F)cc4c3c2CCNC4=O)cc1 [Rucaparib]

percent of control binding at 10 µM (DRAK2; [4]): 100%
percent of control binding at 10 µM (EGFR(L747-T751del,Sins); [4]): 89%
percent of control binding at 10 µM (TNIK; [4]): 98%
percent of control binding at 10 µM (SRPK3; [4]): 100%
percent of control binding at 10 µM (RET; [4]): 100%
percent of control binding at 10 µM (YSK4; [4]): 89%
percent of control binding at 10 µM (SRPK1; [4]): 100%
percent of control binding at 10 µM (EGFR(E746-A750del); [4]): 100%
percent of control binding at 10 µM (PIK3CG; [4]): 62%
percent of control binding at 10 µM (SRC; [4]): 93%
percent of control binding at 10 µM (MKNK2; [4]): 80%
percent of control binding at 10 µM (KIT(A829P); [4]): 100%
Compound: Cn1ncnc1[C@H]1c2n[nH]c(=O)c3cc(F)cc(c23)N[C@@H]1c1ccc(F)cc1 [Talazoparib]
